# Experimental data published in paper PMC9598367, “Discovery and Preliminary Structure-Activity Investigation of 3-Substituted-1H-imidazol-5-yl-1H-indoles with In Vitro Activity towards Methicillin-Resistant Staphylococcus aureus” (Antibiotics, 2022).
row,melting point [°C],SMILES
1,80 to 81,"COc1ccc(OC)c(CCn2cncc2-c2c[nH]c3cc(Cl)ccc23)c1 [Compound 33, 6-Chloro-3-(1-(2,5-dimethoxyphenethyl)-1H-imidazol-5-yl)-1H-indole]"
2,74 to 75,"COc1ccc(Cn2cncc2-c2c[nH]c3cccc(Cl)c23)cc1 [Compound 61, 4-Chloro-3-(1-(4-methoxybenzyl)-1H-imidazol-5-yl)-1H-indole]"
3,179 to 180,"Fc1cccc2c(-c3cncn3Cc3ccccc3)c[nH]c12 [Compound 44, 3-(1-Benzyl-1H-imidazol-5-yl)-7-fluoro-1H-indole]"
4,91 to 92,"Clc1ccc2c(-c3cncn3CCc3ccccc3)c[nH]c2c1 [Compound 20, 6-Chloro-3-(1-phenethyl-1H-imidazol-5-yl)-1H-indole]"
5,51 to 52,"COc1ccc2[nH]cc(-c3cncn3CCc3ccccc3)c2c1 [Compound 56, 5-Methoxy-3-(1-phenethyl-1H-imidazol-5-yl)-1H-indole]"
6,201 to 202,"Brc1cccc2[nH]cc(-c3cncn3Cc3c[nH]c4ccccc34)c12 [Compound 78, 3-(1-((1H-Indol-3-yl)methyl)-1H-imidazol-5-yl)-4-bromo-1H-indole]"
7,193 to 194,"COc1ccc(Cn2cncc2-c2c[nH]c3ccc(Cl)cc23)cc1 [Compound 14, 5-Chloro-3-(1-(4-methoxybenzyl)-1H-imidazol-5-yl)-1H-indole]"
8,65 to 66,"COc1ccc2[nH]cc(-c3cncn3Cc3ccccc3)c2c1 [Compound 49, 3-(1-Benzyl-1H-imidazol-5-yl)-5-methoxy-1H-indole]"
9,99 to 100,"c1ccc(Cn2cncc2-c2ccccc2)cc1 [Compound 103, 1-Benzyl-5-phenyl-1H-imidazole]"
10,188 to 189,CCCCCn1cncc1-c1c[nH]c2cccc(Cl)c12
11,179 to 180,"Clc1cccc2c(-c3cncn3Cc3ccccc3)c[nH]c12 [Compound 47, 3-(1-Benzyl-1H-imidazol-5-yl)-7-chloro-1H-indole]"
12,152 to 153,"COc1ccc2[nH]cc(-c3cncn3CCc3c[nH]c4ccccc34)c2c1 [Compound 87, 3-(1-(2-(1H-Indol-3-yl)ethyl)-1H-imidazol-5-yl)-5-methoxy-1H-indole]"
13,67 to 68,"COc1ccc(Cn2cncc2-c2c[nH]c3ccc(OC)cc23)cc1 [Compound 64, 5-Methoxy-3-(1-(4-methoxybenzyl)-1H-imidazol-5-yl)-1H-indole]"
14,181 to 182,"COc1ccc(Cn2cncc2-c2c[nH]c3ccc(F)cc23)cc1 [Compound 12, 5-Fluoro-3-(1-(4-methoxybenzyl)-1H-imidazol-5-yl)-1H-indole]"
15,> 230,"Fc1cccc2[nH]cc(-c3cncn3CCc3c[nH]c4ccccc34)c12 [Compound 81, 3-(1-(2-(1H-Indol-3-yl)ethyl)-1H-imidazol-5-yl)-4-fluoro-1H-indole]"
16,175 to 176,"COc1ccc(CCn2cncc2-c2c[nH]c3c(F)cccc23)cc1 [Compound 67, 7-Fluoro-3-(1-(4-methoxyphenethyl)-1H-imidazol-5-yl)-1H-indole]"
17,56 to 57,"COc1ccc(CCn2cncc2-c2c[nH]c3cccc(F)c23)cc1 [Compound 66, 4-Fluoro-3-(1-(4-methoxyphenethyl)-1H-imidazol-5-yl)-1H-indole]"
18,65 to 66,"COc1ccc(Cn2cncc2-c2c[nH]c3cc(OC)ccc23)cc1 [Compound 65, 6-Methoxy-3-(1-(4-methoxybenzyl)-1H-imidazol-5-yl)-1H-indole]"

row,melting point [°C],SMILES
1,97 to 98,"COc1ccc2[nH]cc(-c3cncn3Cc3c[nH]c4ccccc34)c2c1 [Compound 79, 3-(1-((1H-Indol-3-yl)methyl)-1H-imidazol-5-yl)-5-methoxy-1H-indole]"
2,66 to 67,"COc1ccc2c(-c3cncn3Cc3ccccc3)c[nH]c2c1 [Compound 50, 3-(1-Benzyl-1H-imidazol-5-yl)-6-methoxy-1H-indole]"
3,204 to 205,"Brc1cccc2[nH]cc(-c3cncn3CCc3ccccc3)c12 [Compound 55, 4-Bromo-3-(1-phenethyl-1H-imidazol-5-yl)-1H-indole]"
4,179 to 180,"COc1ccc(Cn2cncc2-c2c[nH]c3c(F)cccc23)cc1 [Compound 60, 7-Fluoro-3-(1-(4-methoxybenzyl)-1H-imidazol-5-yl)-1H-indole]"
5,195 to 196,"c1ccc2c(-c3cncn3CCc3ccc4c(c3)OCO4)c[nH]c2c1 [Compound 36, 3-(1-(2-(Benzo[d][1,3]dioxol-5-yl)ethyl)-1H-imidazol-5-yl)-1H-indole]"
6,66 to 67,"COc1ccc(Cn2cncc2-c2c[nH]c3cccc(F)c23)cc1 [Compound 59, 4-Fluoro-3-(1-(4-methoxybenzyl)-1H-imidazol-5-yl)-1H-indole]"
7,122 to 123,"CCCCCn1cncc1-c1c[nH]c2c(Cl)cccc12 [Compound 93, 7-Chloro-3-(1-pentyl-1H-imidazol-5-yl)-1H-indole]"
8,207 to 208,"CCCCCn1cncc1-c1c[nH]c2cccc(Br)c12 [Compound 94, 4-Bromo-3-(1-pentyl-1H-imidazol-5-yl)-1H-indole]"
9,107 to 108,"Clc1ccc2[nH]cc(-c3cncn3Cc3c[nH]c4ccccc34)c2c1 [Compound 76, 3-(1-((1H-Indol-3-yl)methyl)-1H-imidazol-5-yl)-5-chloro-1H-indole]"
10,73 to 74,"Clc1cccc2[nH]cc(-c3cncn3CCc3ccccc3)c12 [Compound 53, 4-Chloro-3-(1-phenethyl-1H-imidazol-5-yl)-1H-indole]"
11,48 to 49,"COc1ccc(CCn2cncc2-c2c[nH]c3ccc(OC)cc23)cc1 [Compound 71, 5-Methoxy-3-(1-(4-methoxyphenethyl)-1H-imidazol-5-yl)-1H-indole]"
12,181 to 182,"COc1ccc(Cn2cncc2-c2c[nH]c3cc(F)ccc23)cc1 [Compound 13, 6-Fluoro-3-(1-(4-methoxybenzyl)-1H-imidazol-5-yl)-1H-indole]"
13,150 to 151,"COc1ccc(OC)c(CCn2cncc2-c2c[nH]c3ccc(F)cc23)c1 [Compound 30, 3-(1-(2,5-Dimethoxyphenethyl)-1H-imidazol-5-yl)-5-fluoro-1H-indole]"
14,> 200,"Clc1ccc2c(-c3cncn3Cc3ccc(I)cc3)c[nH]c2c1 [Compound 8, 6-Chloro-3-(1-(4-iodobenzyl)-1H-imidazol-5-yl)-1H-indole]"
15,70 to 71,"Clc1ccc2[nH]cc(-c3cncn3CCc3c[nH]c4ccccc34)c2c1 [Compound 84, 3-(1-(2-(1H-Indol-3-yl)ethyl)-1H-imidazol-5-yl)-5-chloro-1H-indole]"
16,181 to 182,"Fc1cccc2[nH]cc(-c3cncn3CCc3ccccc3)c12 [Compound 51, 4-Fluoro-3-(1-phenethyl-1H-imidazol-5-yl)-1H-indole]"
17,152 to 153,"COc1ccc(-c2cncn2Cc2c[nH]c3ccccc23)cc1 [Compound 112, 3-((5-(4-Methoxyphenyl)-1H-imidazol-1-yl)methyl)-1H-indole]"
18,177 to 178,"Fc1cccc2[nH]cc(-c3cncn3Cc3ccccc3)c12 [Compound 43, 3-(1-Benzyl-1H-imidazol-5-yl)-4-fluoro-1H-indole]"
